US4684649A, “Quinoxaline derivatives useful for treatment and prophylaxis of swine dysentery and as animal growth promotants” (priority 1985, dated 1987)
≈ marks a conversion by molar mass, not a printed value.

Tests used:
Salmonella Typhimurium = conditions: Ames test; prior art compound; cited from earlier work
[1] = system: Salmonella Typhimurium TA 98; assay: Ames test, in the presence of microsomial extract, strain TA 98; assay type: cell-based
From the text: (§1) Mutation Test determined according to the "Ames test"
(§2) (B.N. Ames et al. Mutation Research 31, page 347, 1975).
(§3) The compound 2-[bis-(1'-hydroxy-3'-t-butyl-4'-methoxy-phenyl-2')-methyl-quinoxaline-1,4-dioxide prepared according to Example 1 was submitted to the Ames test showing the results summarized in the following two tables: […]

[2] = system: Salmonella Typhimurium TA 1535; assay: Ames test, in the absence of microsomial extract, strain TA 1535; assay type: cell-based
From the text: as §1, §2, §3

[3] = system: Salmonella Typhimurium TA 1538; assay: Ames test, in the presence of microsomial extract, strain TA 1538; assay type: cell-based
From the text: as §1, §2, §3

Treponema hyodysenterae = assay: medicated feed in pigs exposed to Treponema hyodysenterae infections (swine dysentery); assay type: in vivo
From the text: Compound of Example 1 was mixed with the swine balanced feed described on page 8 at the ratio of 200 grams/ton. A group of 30 pigs was fed with this medicated diet. An equivalent group of pigs was used as control. The two groups were stabled in pigsties where infections of Treponema hyodysenterae have been observed. No one of the animals under treatment was getting ill, while the 50% of the untreated animals in the control group was clearly showing typical symptoms of swine dysentery.

[4] = system: Salmonella Typhimurium TA 98; assay: Ames test, in the absence of microsomial extract, strain TA 98; assay type: cell-based
From the text: as §1, §2, §3

[5] = system: Salmonella Typhimurium TA 1535; assay: Ames test, in the presence of microsomial extract, strain TA 1535; assay type: cell-based
From the text: as §1, §2, §3

[6] = growth promotion and feed efficiency in pigs; assay type: in vivo; conditions: 28 days, 200 grams/ton in diet
From the text: The efficacy of compound of Example 1 in promoting growth and improving the feed efficiency is illustrated below. 20 healthy pigs of same age and of average same weight were divided into two groups. One group of 10 pigs served as control and was fed a basal non-supplemented diet, the other group of 10 pigs received the same basal diet, but supplemented with 200 grams/ton of compound of Example 1.

[7] = system: Salmonella Typhimurium TA 100; assay: Ames test, in the absence of microsomial extract, strain TA 100; assay type: cell-based
From the text: as §1, §2, §3

[8] = system: Salmonella Typhimurium TA 1538; assay: Ames test, in the absence of microsomial extract, strain TA 1538; assay type: cell-based
From the text: as §1, §2, §3

[9] = system: Salmonella Typhimurium TA 100; assay: Ames test, in the presence of microsomial extract, strain TA 100; assay type: cell-based
From the text: as §1, §2, §3

Treponema hyodysenteriae = assay: in vitro antibacterial activity (MIC) against Treponema hyodysenteriae; assay type: cell-based; conditions: Brachyspira hyodysenteriae, growth medium with about 5% bovine blood and about 3% tryptose agar
Method: MIC's against Treponema hyodysenteriae were determined by spreading appropriate dilutions of the microorganism on a growth medium containing about 5% bovine blood and about 3% tryptose agar.
Among the compounds of structure I subjected to in vitro screening were the following in which R and R1 have the above meaning.

## COC(=O)NN=Cc1c[n+]([O-])c2ccccc2[n+]1[O-] [carbadox, 2-formyl-quinoxaline-1,4-dioxide carbomethoxyhydrazone]
Salmonella Typhimurium
  mutagenic effect: substantial mutagenic effect

## [N-]=[N+]=[N-] [sodium azide, reference compound]
[1]; TA 98, 10 mcg
  Number of mutating colonies/plate: 1803 mutating colonies/plate
[2]; TA 1535, 10 mcg
  Number of mutating colonies/plate: 1006 mutating colonies/plate
[3]; TA 1538, 10 mcg
  Number of mutating colonies/plate: 2258 mutating colonies/plate

## COc1ccc(O)c(C(c2c(O)ccc(OC)c2C(C)(C)C)c2c[n+]([O-])c3ccccc3[n+]2[O-])c1C(C)(C)C [Example 1, 2-[bis(1'-hydroxy-3'-t-butyl-4'-methoxy-phenyl-2')-methyl]-quinoxaline-1,4-dioxide]
Treponema hyodysenterae; 200 grams/ton of feed, 30 pigs, control group 50% ill
  animals under treatment getting ill: No one
Treponema hyodysenterae; after 2 weeks of treatment with medicated feed, 200 grams/ton
  recovery of the infected animals: recovered completely
[4]; TA 98, 10 mcg
  Number of mutating colonies/plate: 25 mutating colonies/plate
[4]; TA 98, 30 mcg
  Number of mutating colonies/plate: 24 mutating colonies/plate
[4]; TA 98, 100 mcg
  Number of mutating colonies/plate: 27 mutating colonies/plate
[4]; TA 98, 300 mcg
  Number of mutating colonies/plate: 24 mutating colonies/plate
[4]; TA 98, 600 mcg
  Number of mutating colonies/plate: 27 mutating colonies/plate
[4]; TA 98, 1000 mcg
  Number of mutating colonies/plate: 27 mutating colonies/plate
[5]; TA 1535, 10 mcg
  Number of mutating colonies/plate: 23 mutating colonies/plate
[5]; TA 1535, 30 mcg
  Number of mutating colonies/plate: 26 mutating colonies/plate
[5]; TA 1535, 100 mcg
  Number of mutating colonies/plate: 22 mutating colonies/plate
[5]; TA 1535, 300 mcg
  Number of mutating colonies/plate: 16 mutating colonies/plate
[5]; TA 1535, 600 mcg
  Number of mutating colonies/plate: 22 mutating colonies/plate
[5]; TA 1535, 1000 mcg
  Number of mutating colonies/plate: 20 mutating colonies/plate
[6]
  increase in feed efficiency over the controls: 5,5%
[6]; versus control ration
  body weight increase over control (heavier on average): 4,6%
[7]; TA 100, 10 mcg
  Number of mutating colonies/plate: 168 mutating colonies/plate
[7]; TA 100, 30 mcg
  Number of mutating colonies/plate: 165 mutating colonies/plate
[7]; TA 100, 100 mcg
  Number of mutating colonies/plate: 151 mutating colonies/plate
[7]; TA 100, 300 mcg
  Number of mutating colonies/plate: 162 mutating colonies/plate
[7]; TA 100, 600 mcg
  Number of mutating colonies/plate: 177 mutating colonies/plate
[7]; TA 100, 1000 mcg
  Number of mutating colonies/plate: 142 mutating colonies/plate
[1]; TA 98, 10 mcg
  Number of mutating colonies/plate: 30 mutating colonies/plate
[1]; TA 98, 30 mcg
  Number of mutating colonies/plate: 27 mutating colonies/plate
[1]; TA 98, 100 mcg
  Number of mutating colonies/plate: 24 mutating colonies/plate
[1]; TA 98, 300 mcg
  Number of mutating colonies/plate: 20 mutating colonies/plate
[1]; TA 98, 600 mcg
  Number of mutating colonies/plate: 24 mutating colonies/plate
[1]; TA 98, 1000 mcg
  Number of mutating colonies/plate: 28 mutating colonies/plate
[2]; TA 1535, 10 mcg
  Number of mutating colonies/plate: 15 mutating colonies/plate
[2]; TA 1535, 30 mcg
  Number of mutating colonies/plate: 12 mutating colonies/plate
[2]; TA 1535, 100 mcg
  Number of mutating colonies/plate: 9 mutating colonies/plate
[2]; TA 1535, 300 mcg
  Number of mutating colonies/plate: 13 mutating colonies/plate
[2]; TA 1535, 600 mcg
  Number of mutating colonies/plate: 25 mutating colonies/plate
[2]; TA 1535, 1000 mcg
  Number of mutating colonies/plate: 16 mutating colonies/plate
[3]; TA 1538, 10 mcg
  Number of mutating colonies/plate: 16 mutating colonies/plate
[3]; TA 1538, 30 mcg
  Number of mutating colonies/plate: 14 mutating colonies/plate
[3]; TA 1538, 100 mcg
  Number of mutating colonies/plate: 15 mutating colonies/plate
[3]; TA 1538, 300 mcg
  Number of mutating colonies/plate: 8 mutating colonies/plate
[3]; TA 1538, 600 mcg
  Number of mutating colonies/plate: 18 mutating colonies/plate
[3]; TA 1538, 1000 mcg
  Number of mutating colonies/plate: 14 mutating colonies/plate
[8]; TA 1538, 10 mcg
  Number of mutating colonies/plate: 11 mutating colonies/plate
[8]; TA 1538, 30 mcg
  Number of mutating colonies/plate: 16 mutating colonies/plate
[8]; TA 1538, 100 mcg
  Number of mutating colonies/plate: 15 mutating colonies/plate
[8]; TA 1538, 300 mcg
  Number of mutating colonies/plate: 10 mutating colonies/plate
[8]; TA 1538, 600 mcg
  Number of mutating colonies/plate: 17 mutating colonies/plate
[8]; TA 1538, 1000 mcg
  Number of mutating colonies/plate: 17 mutating colonies/plate
solubility; in acetone
  solubility: slightly soluble
solubility; in benzene
  solubility: slightly soluble
solubility; in dimethylformamide
  solubility: soluble
solubility; in dioxane
  solubility: soluble
solubility; in methanol
  solubility: slightly soluble
solubility; in tetrahydrofuran
  solubility: soluble
solubility; in water
  solubility: very scarcely soluble
[9]; TA 100, 10 mcg
  Number of mutating colonies/plate: 158 mutating colonies/plate
[9]; TA 100, 30 mcg
  Number of mutating colonies/plate: 143 mutating colonies/plate
[9]; TA 100, 100 mcg
  Number of mutating colonies/plate: 135 mutating colonies/plate
[9]; TA 100, 300 mcg
  Number of mutating colonies/plate: 174 mutating colonies/plate
[9]; TA 100, 600 mcg
  Number of mutating colonies/plate: 175 mutating colonies/plate
[9]; TA 100, 1000 mcg
  Number of mutating colonies/plate: 125 mutating colonies/plate
Treponema hyodysenteriae
  MIC: 0.1 µg/mL (≈ 0.188 µM)

## COc1ccc(O)c(C(c2c(O)ccc(OC)c2C(C)C)c2c[n+]([O-])c3ccccc3[n+]2[O-])c1C(C)C [Example 2, 2-[bis(1'-hydroxy-3'-i-propyl-4'-methoxy-phenyl-2')-methyl]-quinoxaline-1,4-dioxide]
Treponema hyodysenteriae
  MIC: 0.9 µg/mL (≈ 1.78 µM)
